Test results as given in patent publication US20230124095A1 (AMORPHICAL LTD., priority 2020, published 2023).

Tests used:
Cathepsin B = Cathepsin B activity in Lewis lung carcinoma tumors of treated mice (fluorometric kit); assay type: in vivo; settings: 12 days treatment; vs untreated (saline) group
Description: 8 tumors were analyzed per group. For the assay, 20 mg from each extracted tumor were weighed and lysed. Measurements were done using Cathepsin B Activity Assay Kit (Fluorometric) (ab65300) by Abcam (Cambridge, UK). The assays were performed on tumors from the two groups. The lysed samples were treated per Kit instructions, i.e., incubated with Cathepsin B substrate for 1 hour at 37° C. to identify the activity of the lysosomal protein.
(§1) The study was performed with C57BL/6 mice at the age of 6-8 weeks. Eight mice were allocated into each study group. Light anesthesia was administered by isoflurane inhalation. LLC cells in a concentration of 2.5×10^5 cells in 100 μl PBS were intradermally injected (subcutaneously) into the right flank of each mice. […] Cisplatin was given according to manufacturer instructions.
(§2) Ten days following tumor inoculation, when the tumor reached a volume of about >60 mm^3, mice were randomly allocated into the study groups. Various treatments were administered to each group starting Day 10 onwards. The treatment duration lasted for 12 days.
(§3) Both Cathepsin B and S activities were measured using samples from the same groups according to kit instructions. […] Cathepsin B Activity Assay Kit (Fluorometric) (ab65300) and Cathepsin S Activity Assay Kit (Fluorometric) (ab65303) by Abcam (Cambridge, UK) were used.

[1] = test system: Lewis Lung Carcinoma (LLC); assay: Tumor growth in subcutaneous LLC model, ACC with different stabilizers given IP or IV; assay type: in vivo, mice; settings: group 2F, per manufacturer
Cathepsin S = Cathepsin S activity in Lewis lung carcinoma tumors of treated mice (fluorometric kit); assay type: in vivo; settings: 12 days treatment; vs untreated (saline) group
Description: as §1, §2, §3

[2] = test system: Experimental Autoimmune Encephalomyelitis (EAE) model; assay: Clinical score in MOG-induced EAE multiple sclerosis model in mice; assay type: in vivo

Compound	reduction in Cathepsin B activity in tumors (Cathepsin B) [%]	Mean tumor volume on Day 25 [1] [mm^3]	increase in Cathepsin S activity in tumors (Cathepsin S) [%]	day on which paralysis signs started ([2]; C57BL mice, n=10 per group) [days]	score of the paralysis signs at plateau ([2]; after days 15 and 16 of treatments)	score of the paralysis signs at the end of the study ([2]; study duration 55 days)	paralysis progression at the initial phase ([2]; until day 15, compared to mice given saline or ACC)
N.N.[Cl][Pt][Cl] [Cisplatin]	43	1342	30	–	–	–	–
Glatiramer acetate [Copaxone]	–	–	–	11	the same paralysis score	higher score	slower paralysis progression
